According to the supplement of paper PMC11368000:

Columns and labels:
Settings in all cases: exposure time: 90 min
20032 = donor line of iPSC-derived cardiomyocytes; assay: POD (EC05) for increase in beat frequency (positive chronotrope) vs vehicle; higher = less potent (higher point of departure)
Description: (§1)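 Human iPSC-derived cardiomyocytes from 16 donors were exposed for 90 min at 37 °C to each PFAS at 0.1, 1, 10 and 100 µM in 0.5% DMSO, 384-well plates. Kinetic Ca2+ flux (FLIPR) and Hoechst nuclei counts were normalised to vehicle wells and fitted with a hierarchical Bayesian Hill model to give donor-specific PODs: EC05 for beat-rate increase or decrease and for decay-to-rise ratio increase (QT proxy), EC95 for peak-frequency loss (asystole), EC10 for total cell number loss. 0.03 µM is the lower bound.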

1118 = donor line of iPSC-derived cardiomyocytes; assay: as above
Description: as §1

1368 = donor line of iPSC-derived cardiomyocytes; assay: as above
Description: as §1

1083 = donor line of iPSC-derived cardiomyocytes; assay: as above
Description: as §1

30171 = donor line of iPSC-derived cardiomyocytes; assay: as above
Description: as §1

11235 = donor line of iPSC-derived cardiomyocytes; assay: as above
Description: as §1

20084 = donor line of iPSC-derived cardiomyocytes; assay: as above
Description: as §1

1535 [1] = donor line of iPSC-derived cardiomyocytes; assay: as above
Description: as §1

1392 = donor line of iPSC-derived cardiomyocytes; assay: as above
Description: as §1

30145 = donor line of iPSC-derived cardiomyocytes; assay: as above
Description: as §1

1518 [2] = donor line of iPSC-derived cardiomyocytes; assay: as above
Description: as §1

1531 = donor line of iPSC-derived cardiomyocytes; assay: as above
Description: as §1

1565 = donor line of iPSC-derived cardiomyocytes; assay: as above
Description: as §1

1434 = donor line of iPSC-derived cardiomyocytes; assay: as above
Description: as §1

1309 = donor line of iPSC-derived cardiomyocytes; assay: as above
Description: as §1

1516 [3] = donor line of iPSC-derived cardiomyocytes; assay: as above
Description: as §1

1535 [4] = assay: POD (EC05) for increase in Ca2+ transient decay-to-rise ratio (QT prolongation) vs vehicle; higher = less potent (higher point of departure)
Summary of the method: (§2)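 Ca2+ flux in human iPSC-derived cardiomyocytes from 16 donors was recorded on a FLIPR Tetra for 100 s before and after a 90 min exposure at 37 °C to 0.1, 1, 10 and 100 µM (final, 0.5% DMSO). Donor-specific points of departure came from hierarchical Bayesian Hill fits to vehicle-normalised beat frequency, decay-to-rise ratio or peak frequency. A 5% change served as threshold, except for peak frequency, where it was a 95% loss.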

1518 [5] = assay: as above
Summary of the method: as §2

1516 [6] = assay: as above
Summary of the method: as §2

Work on `OCC(F)(F)C(F)(F)C(F)(F)C(F)F` [1H,1H,5H-Perfluoropentanol] yielded a POD vs vehicle 20032 of over 100 µM, a POD vs vehicle 1118 of over 100 µM and a POD vs vehicle 1368 of over 100 µM. The POD vs vehicle 1083 was over 100 µM, the POD vs vehicle 30171 was over 100 µM and the POD vs vehicle 11235 was over 100 µM. For the same compound, the POD vs vehicle 20084 was over 100 µM, the POD vs vehicle 1535 [1] was over 100 µM and the POD vs vehicle 1392 was over 100 µM. The POD vs vehicle 30145 was over 100 µM, the POD vs vehicle 1518 [2] was over 100 µM and the POD vs vehicle 1531 was over 100 µM. It also gave a POD vs vehicle 1565 of over 100 µM, a POD vs vehicle 1434 of over 100 µM and a POD vs vehicle 1309 of over 100 µM. The POD vs vehicle 1516 [3] was over 100 µM, the POD vs vehicle 1535 [4] was over 100 µM and the POD vs vehicle 1518 [5] was 2.03 µM. For the same compound, the POD vs vehicle 1516 [6] was 4.56 µM.

In the case of `O=S(=O)(OCC(F)(F)F)C(F)(F)C(F)(F)C(F)(F)C(F)(F)F` [2,2,2-Trifluoroethyl_perfluorobutanesulfonate], the POD vs vehicle 20032 is reported as over 100 µM, the POD vs vehicle 1118 is reported as over 100 µM and the POD vs vehicle 1368 is reported as over 100 µM. The POD vs vehicle 1083 was over 100 µM, the POD vs vehicle 30171 was over 100 µM and the POD vs vehicle 11235 was over 100 µM. It also gave a POD vs vehicle 20084 of over 100 µM, a POD vs vehicle 1535 [1] of over 100 µM and a POD vs vehicle 1392 of over 100 µM. For the same compound, the POD vs vehicle 30145 was over 100 µM, the POD vs vehicle 1518 [2] was over 100 µM and the POD vs vehicle 1531 was over 100 µM. For the same compound, the POD vs vehicle 1565 was over 100 µM, the POD vs vehicle 1434 was over 100 µM and the POD vs vehicle 1309 was over 100 µM. For the same compound, the POD vs vehicle 1516 [3] was over 100 µM and the POD vs vehicle 1535 [4] was over 100 µM.

`OCCC(F)(F)C(F)(F)C(F)(F)C(F)(F)F` [4:2 Fluorotelomer alcohol] gave a POD vs vehicle 20032 of over 100 µM, a POD vs vehicle 1118 of over 100 µM and a POD vs vehicle 1368 of over 100 µM. It also gave a POD vs vehicle 1083 of over 100 µM, a POD vs vehicle 30171 of over 100 µM and a POD vs vehicle 11235 of over 100 µM. It also gave a POD vs vehicle 20084 of over 100 µM, a POD vs vehicle 1535 [1] of over 100 µM and a POD vs vehicle 1392 of over 100 µM. The POD vs vehicle 1518 [2] was over 100 µM, the POD vs vehicle 1531 was over 100 µM and the POD vs vehicle 1565 was over 100 µM. For the same compound, the POD vs vehicle 1434 was over 100 µM, the POD vs vehicle 1309 was over 100 µM and the POD vs vehicle 1516 [3] was over 100 µM. It also gave a POD vs vehicle 1535 [4] of over 100 µM.

`OCC(F)(F)C(F)(F)C(F)(F)C(F)(F)C(F)(F)C(F)(F)F` [6:1 Fluorotelomer alcohol] showed a POD vs vehicle 20032 of over 100 µM, a POD vs vehicle 1118 of over 100 µM and a POD vs vehicle 1368 of over 100 µM. It also gave a POD vs vehicle 1083 of over 100 µM, a POD vs vehicle 30171 of over 100 µM and a POD vs vehicle 11235 of over 100 µM. For the same compound, the POD vs vehicle 20084 was over 100 µM, the POD vs vehicle 1535 [1] was over 100 µM and the POD vs vehicle 1392 was over 100 µM. It also gave a POD vs vehicle 30145 of over 100 µM, a POD vs vehicle 1518 [2] of over 100 µM and a POD vs vehicle 1531 of over 100 µM. The POD vs vehicle 1565 was over 100 µM, the POD vs vehicle 1434 was over 100 µM and the POD vs vehicle 1309 was over 100 µM. The POD vs vehicle 1516 [3] was over 100 µM, the POD vs vehicle 1535 [4] was over 100 µM and the POD vs vehicle 1516 [6] was over 100 µM.

With `O=C([O-])C(F)(F)C(F)(F)C(F)(F)C(F)(F)C(F)(F)C(F)(F)C(F)(F)F.[NH4+]` [Ammonium_perfluorooctanoate] the POD vs vehicle 20032 was over 100 µM, the POD vs vehicle 1118 was over 100 µM and the POD vs vehicle 1368 was over 100 µM. The POD vs vehicle 30171 was over 100 µM, the POD vs vehicle 11235 was over 100 µM and the POD vs vehicle 20084 was over 100 µM. The POD vs vehicle 1535 [1] was over 100 µM, the POD vs vehicle 1392 was over 100 µM and the POD vs vehicle 1518 [2] was over 100 µM. It also gave a POD vs vehicle 1531 of over 100 µM, a POD vs vehicle 1565 of over 100 µM and a POD vs vehicle 1434 of over 100 µM. The POD vs vehicle 1309 was over 100 µM, the POD vs vehicle 1516 [3] was over 100 µM and the POD vs vehicle 1535 [4] was over 100 µM. It also gave a POD vs vehicle 1516 [6] of over 100 µM.

With `OCC(F)(F)OC(F)(F)C(F)(F)OC(F)(F)C(F)(F)OC(F)(F)F` [Fluorinated_triethylene_glycol_monomethyl_ether] the POD vs vehicle 20032 was over 100 µM, the POD vs vehicle 1118 was over 100 µM and the POD vs vehicle 1368 was over 100 µM. The POD vs vehicle 1083 was over 100 µM, the POD vs vehicle 11235 was over 100 µM and the POD vs vehicle 20084 was over 100 µM. For the same compound, the POD vs vehicle 1535 [1] was over 100 µM, the POD vs vehicle 1392 was over 100 µM and the POD vs vehicle 1531 was over 100 µM. For the same compound, the POD vs vehicle 1565 was over 100 µM, the POD vs vehicle 1434 was over 100 µM and the POD vs vehicle 1309 was over 100 µM. It also gave a POD vs vehicle 1535 [4] of over 100 µM, a POD vs vehicle 1518 [5] of over 100 µM and a POD vs vehicle 1516 [6] of over 100 µM.
